Measured values published in the supplement of paper PMC11451515.

System: SEM cells
Test: cell viability relative to DMSO control; higher = less cytotoxic
Conditions: 48 h
How it was run: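 Library compounds in DMSO were pin-dosed into 1536-well plates (5 μl) holding NOMO1 or SEM (500 cells/well) or P12-Ichikawa (1000 cells/well) leukemia cells, across an 11-point threefold series of 47 μM to 0.79 nM. Each cell line had been adapted for at least four passages in each medium. CellTiter-Glo One luminescence was read after 48 h at 37°C. Viability is the per-plate percentage relative to DMSO wells, with cell-free wells as background.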

[1] = HPLM + 10% dialyzed FBS, 0.000781 µM
[2] = HPLM + 10% dialyzed FBS, 0.00234 µM
[3] = HPLM + 10% dialyzed FBS, 0.00702 µM
[4] = HPLM + 10% dialyzed FBS, 0.0211 µM
[5] = HPLM + 10% dialyzed FBS, 0.0632 µM
[6] = HPLM + 10% dialyzed FBS, 0.19 µM
[7] = HPLM + 10% dialyzed FBS, 0.569 µM
[8] = HPLM + 10% dialyzed FBS, 1.71 µM
[9] = HPLM + 10% dialyzed FBS, 5.12 µM
[10] = HPLM + 10% dialyzed FBS, 15.4 µM
[11] = HPLM + 10% dialyzed FBS, 46.1 µM
[12] = RPMI 5 mM glucose + 10% FBS, 0.000781 µM
[13] = RPMI 5 mM glucose + 10% FBS, 0.00234 µM
[14] = RPMI 5 mM glucose + 10% FBS, 0.00702 µM
[15] = RPMI 5 mM glucose + 10% FBS, 0.0211 µM
[16] = RPMI 5 mM glucose + 10% FBS, 0.0632 µM
[17] = RPMI 5 mM glucose + 10% FBS, 0.19 µM
[18] = RPMI 5 mM glucose + 10% FBS, 0.569 µM
[19] = RPMI 5 mM glucose + 10% FBS, 1.71 µM
[20] = RPMI 5 mM glucose + 10% FBS, 5.12 µM
[21] = RPMI 5 mM glucose + 10% FBS, 15.4 µM
[22] = RPMI 5 mM glucose + 10% FBS, 46.1 µM
[23] = RPMI 5 mM glucose + 10% dialyzed FBS, 0.000781 µM
[24] = RPMI 5 mM glucose + 10% dialyzed FBS, 0.00234 µM
[25] = RPMI 5 mM glucose + 10% dialyzed FBS, 0.00702 µM
[26] = RPMI 5 mM glucose + 10% dialyzed FBS, 0.0211 µM
[27] = RPMI 5 mM glucose + 10% dialyzed FBS, 0.0632 µM
[28] = RPMI 5 mM glucose + 10% dialyzed FBS, 0.19 µM
[29] = RPMI 5 mM glucose + 10% dialyzed FBS, 0.569 µM
[30] = RPMI 5 mM glucose + 10% dialyzed FBS, 1.71 µM
[31] = RPMI 5 mM glucose + 10% dialyzed FBS, 5.12 µM
[32] = RPMI 5 mM glucose + 10% dialyzed FBS, 15.4 µM
[33] = RPMI 5 mM glucose + 10% dialyzed FBS, 46.1 µM

Row | Structure (SMILES) | cell viability [1] [%] | cell viability [2] [%] | cell viability [3] [%] | cell viability [4] [%] | cell viability [5] [%] | cell viability [6] [%] | cell viability [7] [%] | cell viability [8] [%] | cell viability [9] [%] | cell viability [10] [%] | cell viability [11] [%] | cell viability [12] [%] | cell viability [13] [%] | cell viability [14] [%] | cell viability [15] [%] | cell viability [16] [%] | cell viability [17] [%] | cell viability [18] [%] | cell viability [19] [%] | cell viability [20] [%] | cell viability [21] [%] | cell viability [22] [%] | cell viability [23] [%] | cell viability [24] [%] | cell viability [25] [%] | cell viability [26] [%] | cell viability [27] [%] | cell viability [28] [%] | cell viability [29] [%] | cell viability [30] [%] | cell viability [31] [%] | cell viability [32] [%] | cell viability [33] [%]
1 | CC(=O)Nc1ccc([C@H](C)C(=O)Nc2ncc(C(C)C)s2)cc1 | 98.9 | 102 | 106 | 95.9 | 104 | 105 | 105 | 95.1 | 61.9 | 8.42 | 4.85 | 107 | 112 | 132 | 121 | 117 | 108 | 123 | 114 | 76 | 8.73 | 4.33 | 95.6 | 79.1 | 97.4 | 97.2 | 109 | 97.2 | 110 | 99.2 | 64.6 | 8.82 | 4.36
2 | CCOC(=O)N1CCN(/[N+]([O-])=N/Oc2ccc([N+](=O)[O-])cc2[N+](=O)[O-])CC1 | 64.4 | 70.7 | 60.1 | 77.6 | 76 | 94.4 | 85.7 | 73.8 | 42.5 | 22.4 | 14 | 70.6 | 84.9 | 56.8 | 91.9 | 93.9 | 94.9 | 88.8 | 81.5 | 40.7 | 13.2 | 8.13 | 77.3 | 91.6 | 72.5 | 88.2 | 89 | 86.2 | 102 | 78.2 | 43.6 | 16.7 | 8.98
3 | Oc1ccc(/C=C/c2cc(O)cc(O)c2)cc1 | 99.5 | 113 | 106 | 104 | 115 | 110 | 112 | 121 | 118 | 97.6 | 10.4 | 105 | 107 | 85.6 | 100 | 103 | 108 | 111 | 94.9 | 101 | 22.7 | 5.07 | 114 | 115 | 97.2 | 98.4 | 100 | 92.8 | 103 | 103 | 111 | 73.7 | 7.98
4 | Cc1cc(Nc2nc(N[C@@H](C)c3ncc(F)cn3)ncc2Cl)n[nH]1 | 93 | 97.4 | 109 | 114 | 103 | 106 | 102 | 99.4 | 61.2 | 21.7 | 19.4 | 120 | 129 | 114 | 110 | 112 | 126 | 110 | 26.2 | 19 | 17.1 | 20.3 | – | – | – | – | – | – | – | – | – | – | –
5 | NC(=O)c1ncn([C@@H]2O[C@H](CO)[C@@H](O)[C@H]2O)n1 | 96.4 | 110 | 116 | 119 | 104 | 106 | 101 | 106 | 117 | 117 | 80.4 | 105 | 115 | 118 | 115 | 112 | 115 | 95.2 | 95.9 | 103 | 123 | 76.9 | 106 | 118 | 121 | 110 | 113 | 108 | 104 | 118 | 111 | 142 | 85.7
6 | Oc1ccc(C2CCN(c3ccnc4ccccc34)CC2)cc1O | 55.8 | 98.9 | 88.8 | 93.5 | 118 | 94.1 | 95.4 | 89.5 | 76.6 | 56.3 | 30.7 | 56.9 | 98 | 93.6 | 94.6 | 106 | 116 | 96.7 | 83 | 62.3 | 43.9 | 13.6 | 54.9 | 92.2 | 97.3 | 114 | 114 | 115 | 88.7 | 96.2 | 59.1 | 45.9 | 39.2
7 | CC[C@H]1/C=C\C=C/C[C@@H](C)[C@H](O)[C@@](C)(O)C(=O)[C@@H](C)[C@H](O)[C@@H](C)C(=O)[C@@H](C)[C@H](O)[C@@H](C)/C=C/C(=O)O[C@@H]2[C@H](C)[C@H](CC1)O[C@]1(CC[C@H](C)[C@H](C[C@@H](C)O)O1)[C@H]2C | 78.7 | 94.1 | 105 | 84.3 | 86.4 | 98.6 | 95.5 | 63.4 | 40.9 | 56.5 | 7.57 | 81.1 | 93.9 | 92.5 | 81.2 | 90.3 | 105 | 97.7 | 58.2 | 28.8 | 34.6 | 7.26 | 90.9 | 97 | 89 | 97.4 | 85.8 | 94.2 | 100 | 54.7 | 43.2 | 36.4 | 8.78
